# Measured values: patent US20250320471A1, “Method for Producing Compounds, Method for Producing Compound Library, Compound Library, and Screening Method” (The University of Tokyo, priority 2021, published 2025)
# Ends that are not written are not given here.
# Tested on: LimF
# Test: His-prenylation of low molecular weight compounds, peptides and proteins by LimF
# Assay type: biochemical, Limnothrix sp. CACIAM 69d
# Conditions: 100 μM LimF, 2 mM GPP, 20 hours; for His-prenylation efficiency (LC/MS): standard conditions
# Description: Next, various low molecular weight compounds, peptides, and proteins, including various compounds that have already been approved as pharmaceuticals, were subjected to His-prenylation facilitated by LimF.
Compound,His-prenylation efficiency (LC/MS) (500 μM substrate) [%],His-prenylation efficiency (LC/MS) (125 μM substrate),prenylation of His residue or imidazole C2 carbon by LimF (in words),"His-prenylation efficiency (LC/MS) (125 μM substrate, listed as Avipt ?) [%]"
"CCCC[C@H](NC(C)=O)C(=O)N[C@H]1CC(=O)NCCCC[C@@H](C(=O)O)NC(=O)[C@H](Cc2c[nH]c3ccccc23)NC(=O)[C@H](CCCN=C(N)N)NC(=O)[C@@H](Cc2ccccc2)NC(=O)[C@H](Cc2cnc[nH]2)NC1=O [Bremelanotide, Ac-Nle-Asp(1)-His-D-Phe-Arg-Trp-Lys(1)-OH]",1,,,
Cyclo(-Ser-Asn-Leu-Ser-Thr-Asu)-Val-Leu-Gly-Lys-Leu-Ser-Gln-Glu-Leu-His-Lys-Leu-Gln-Thr-Tyr-Pro-Arg-Thr-Asp-Val-Gly-Ala-Gly-Thr-Pro-NH2 [Elcatonin],,5%,,
Insulin,5,,,
"CN/C(=N\C#N)NCCSCc1nc[nH]c1C [Cimetidine, cimetidine]",97,,very high efficiency,
H-Pyr-His-Trp-Ser-Tyr-D-Leu-Leu-Arg-Pro-NHEt [Leoprorelin],99,,very high efficiency,
Aviptadil: synthetic vasoactive intestinal polypeptide (HSDAVFTDNYTRLRKQMAVKKYLNSILN; Aviptadil),,about 90%,,90
Pramlintide: analog of amylin (KCNTATCATQRLANFLVHSSNNFGPILPPTNVGSNTY; Pramlintide),,99%,very high efficiency,
H-Asp-Arg-Val-Tyr-Ile-His-Pro-Phe-OH [ANGIOTENSIN II],1,,,
"CCNC(=O)[C@@H]1CCCN1C(=O)[C@H](CCCNC(=N)N)NC(=O)[C@H](CC(C)C)NC(=O)[C@@H](Cc1cn(Cc2ccccc2)cn1)NC(=O)[C@H](Cc1ccc(O)cc1)NC(=O)[C@H](CO)NC(=O)[C@H](Cc1c[nH]c2ccccc12)NC(=O)[C@H](Cc1cnc[nH]1)NC(=O)[C@@H]1CCC(=O)N1 [Histrelin, H-Pyr-His-Trp-Ser-Tyr-D-His(1-Bn)-Leu-Arg-Pro-NHEt]",99,,very high efficiency,
"Teduglutide (HGDGSFSDEMNTILDNLAARDFINWLIQTKITD; chains of the INN, looked up)",,50%,very high efficiency,
NC(=O)[C@@H]1CCCN1C(=O)[C@H](Cc1cnc[nH]1)NC(=O)[C@@H]1CCC(=O)N1 [TRH],15,,,
tecyclo[wAVSNLPPRPHITYIEC]S [PBm1],99,,very high efficiency,
"Trp-His-Trp-Leu-Gln-Leu-Lys-Pro-Gly-Gln-Pro-Met-Tyr-OH (WHWLQLKPGQPMY-OH) [α-mating factor, cell signaling peptide for yeast]",39,,,
